Measured values from patent publication US20040229241A1, “Cloned mammalian polyamine oxidase” (priority 2001, published 2004).

Experiments:
[1] = molecular target: T1, purified recombinant human PAOh1/SMO (Homo sapiens, UniProt Q9NWM0); experiment: Oxidase activity of purified recombinant PAOh1/SMO, luminol chemiluminescence; assay type: biochemical; details: for ability to serve as substrate (oxidation by purified PAOh1/SMO): 250 μM of compound; for inhibition of PAOh1/SMO activity, increasing concentrations: 250 μM spermine
T1 construct: A 1702 bp fragment of the PAOh1cDNA was produced by PCR; His tag (pET15b) (N); made in house; host or cells: Escherichia coli BL21(DE3)
T1 sequence (Q9NWM0 whole entry, the tested form may be a part): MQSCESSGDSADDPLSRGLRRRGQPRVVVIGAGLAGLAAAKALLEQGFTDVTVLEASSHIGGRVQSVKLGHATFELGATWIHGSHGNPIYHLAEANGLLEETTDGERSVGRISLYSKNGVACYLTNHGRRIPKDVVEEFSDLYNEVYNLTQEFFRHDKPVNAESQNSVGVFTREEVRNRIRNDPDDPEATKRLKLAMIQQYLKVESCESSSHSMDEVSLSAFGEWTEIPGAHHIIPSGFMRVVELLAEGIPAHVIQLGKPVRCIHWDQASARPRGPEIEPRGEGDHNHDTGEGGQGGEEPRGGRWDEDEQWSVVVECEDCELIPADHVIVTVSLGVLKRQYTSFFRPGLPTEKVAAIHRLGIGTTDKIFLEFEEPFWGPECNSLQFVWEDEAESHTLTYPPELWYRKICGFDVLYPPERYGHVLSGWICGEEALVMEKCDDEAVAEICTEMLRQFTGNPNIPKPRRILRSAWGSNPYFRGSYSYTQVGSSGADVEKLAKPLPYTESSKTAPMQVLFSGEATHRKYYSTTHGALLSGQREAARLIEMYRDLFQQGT
Experimental: Expression and Purification of PAOh1/SMO. The pET15b/PAOh1/SMO plasmid was used to transform the BL21(DE3) strain of Escherichia coli (Novagen) and transformed cells were selected on LB agar with 50 μg/ml ampicillin. The expression of PAOh1/SMO protein was induced in LB medium by the addition of 1 mM IPTG for 3 h at 37 ° C. Cell lysates were prepared under denaturing conditions with 8M urea and PAOh1/SMO protein was purified from the lysate by Ni-NTA resin according to the manufacturer's protocol (Qiagen, Valencia, Calif.). The resulting denatured protein was renatured in buffers containing decreasing concentrations of urea (5M urea, 4 h; 2.5M urea, 4 h; 1M urea, 12 h; and 0M urea, 12 h) and 50 mM Tris-HCl, pH 7.5, 250 mM NaCl, 0.1 mM EDTA, 1 mM DTT, and 0.2 μM flavin adenine dinucleotide (FAD).
Determination of PAO enzyme activity. PAO activity of the purified PAOh1/SMO was assayed using a modi.cation of the chemiluminesence analysis reported by Fernandez et al. and Rogers, et al.. Briefly, luminol-dependent chemiluminescence was determined using a Monolight 3010 luminometer with two reagent injectors. Luminol was prepared as a 100 mM stock solution in DMSO and diluted to 100 μM with H2O, immediately prior to use. Purified PAOh1/SMO was assayed in a 100 mM glycine buffer, pH 8.0, 5 ηmol luminol, 20 μg horseradish peroxidase, and the polyamine substrate as indicated. All reagents with the exception of the polyamine substrate were combined and incubated for 2 min at 37 ° C., then the tube was transferred to the luminometer, substrate was added, and the resulting chemiluminescence was integrated over 20 s. The integral values are calibrated against standards containing known concentrations of H2O2 and the activities are expressed as pmols H2O2/mg protein/min. Where indicated, inhibitors were added at the specified concentrations prior to the addition of substrate. Km and Vmax values for the purified enzyme with the indicated substrate were estimated using Lineweaver-Burk transformation of the Michaelis-Menten kinetic equation.

PAOh1/SMO = PAOh1/SMO activity in lysates of NCI A549 cells after analogue treatment; assay type: cell-based, human; details: for substrate of the inducible PAOh1/SMO activity: lysates of NCI A549 treated with 10 μM BENSpm or CPENSpm 24 h, 250 μM substrate; for induction of PAOh1/SMO activity: NCI A549, 24 h exposure to 10 μM of each analogue
Experimental: (§1) Cell Culture and Analysis of Growth Inhibition of Human Lung Cancer Cell Lines The non-small-cell cancer lines NCI A549 (adenocarcinoma), NCI H157 (squamous), NCI H727 (carcinoid), NCI H125 (adenocarcinoma) and U1752 (squamous), and the small-cell lung carcinoma lines NCI H82 and NCI H889 were cultured as we have previously described. Cells were treated for the times and with the concentrations of specific agents as indicated in the Results. For cell growth analysis in the presence of the PAOh1/SMO inhibitor MDL 72,527, the MTS dye reduction assay CellTiter 96 system from Promega was used according to the supplier's protocol. In these experiments, NCI A549 cells were seeded at 5×10^3 cells/well in a 96-well microtiter plate and treated for 96 h with 10 μM of the indicated analogue in the presence or absence of 250 μM MDL 72,527.
(§2) Total cellular RNA was extracted from the lung cancer cell lines using Trizol reagent (Invitrogen) according to the manufacturer's protocol. For Northern blotting, total RNA (20 lg) was separated on a denaturing 1.5% agarose gel containing 6% formaldehyde and transferred to Zetaprobe membrane (Bio-Rad). Random primer- labeled PAOh1 cDNA was used as probe to estimate PAOh1/SMO expression. Blots were stripped and reprobed with an 18S ribosomal cDNA to provide a loading control. Analysis of polyamine content, SSAT and PAOh1/SMO activity. Intracellular polyamine concentrations were determined using the precolumn dansylation labeling, reverse-phase high-pressure liquid chromatography method as described by Kabra et al. using 1,7-diaminoheptane as an internal standard. Polyamine concentrations are reported as nanomoles per milligram protein for each sample, where lysate protein content was measured by the method of Bradford. SSAT activity of cellular extracts was measured as previously described. […] The PAOh1/SMO assays were performed in the presence of 1.0 mM pargyline and 0.1 mM semicarbizide as inhibitors of monoamine oxidase (MAO) and diamine oxidase (DAO), respectively.

PAOh4 = molecular target: T2, PAOh4 (Homo sapiens, UniProt Q9NWM0); experiment: Kinetics of TnT-produced PAOh4 isoenzyme; assay type: biochemical; details: named compound as substrate
T2 construct: For PAO-isoform 4, the cDNA is 1825 bp long; the open reading frame encodes 532 amino acids; made in house; host or cells: Wheat Germ Extract-TnT coupled system (Promega), template pPAOh4 (pcDNA3.1), cDNA from HEK-293 mRNA
T2 sequence (Q9NWM0 1-532 isoform Q9NWM0-4): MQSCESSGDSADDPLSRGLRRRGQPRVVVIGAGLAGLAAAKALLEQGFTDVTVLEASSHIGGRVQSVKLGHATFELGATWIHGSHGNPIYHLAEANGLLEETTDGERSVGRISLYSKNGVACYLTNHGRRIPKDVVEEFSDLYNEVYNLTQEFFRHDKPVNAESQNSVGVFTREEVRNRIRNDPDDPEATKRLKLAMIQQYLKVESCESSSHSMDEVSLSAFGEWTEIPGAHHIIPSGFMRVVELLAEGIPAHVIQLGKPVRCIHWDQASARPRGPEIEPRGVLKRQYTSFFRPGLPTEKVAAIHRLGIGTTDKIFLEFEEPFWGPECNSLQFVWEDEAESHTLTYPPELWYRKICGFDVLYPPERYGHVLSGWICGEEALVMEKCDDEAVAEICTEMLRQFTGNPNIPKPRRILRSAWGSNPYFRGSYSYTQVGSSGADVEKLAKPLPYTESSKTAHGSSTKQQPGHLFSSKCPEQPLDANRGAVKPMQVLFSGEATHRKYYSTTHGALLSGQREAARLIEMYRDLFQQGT
Experimental: For PAO splice variant protein analysis, each cDNA construct, as well as the pcDNA3.1 empty vector, was linearized using NdeI. In vitro transcription and translation was subsequently performed using the Wheat Germ Extract-TnT coupled system from Promega (Madison, Wis., U.S.A.) according to the manufacturer's protocol. Reactions were performed in parallel, with one aliquot containing [^35S]methionine in the amino acid mixture for subsequent separation and quantification by SDS-PAGE. […] After drying, bands were visualized and quantified using phosphorimage analysis with Image Quant software from Molecular Dynamics (Sunnyvale, Calif., U.S.A.).
TnT products from the reactions using unlabelled substrates were used for PAO enzyme analysis by the method of Suzuki et al. Specifically, 10 μl of the TnT reaction mixture was used for each 600 μl of PAO assay sample (in duplicate, and in the presence of monoamine and diamine oxidase inhibitors, as previously described). Background oxidase activity in the Wheat Germ Extract-TnT reactions was determined for each substrate using the empty pcDNA3.1 vector. These values (always<0.05 pmol/min) were subtracted from the oxidase activity measured in TnT lysates produced from vectors containing the individual splice variants. To ensure linearity of the reaction (thereby determining the optimal incubation time after substrate addition), time courses were performed for each potential isoenzyme in the presence of 1 mM Spm (Sigma, St. Louis, Mo., U.S.A.).
Apparent kinetics were examined for each isoenzyme using TnT reaction products as described above with increasing concentrations of Spm, Spd (Sigma) or N^1-acetylspermine (N^1-AcSpm; Fluka). Apparent Km and Vmax values were determined using the Lineweaver-Burk transformation of the Michaelis-Menten equation. Values were adjusted for TnT reaction efficiency by SDS-PAGE quantfication of a [^35S]methionine-labelled aliquot of the TnT reaction mixture normalized for methionine content.

NCI A549 cells [2] = experiment: MTS cell growth analysis of NCI A549 cells with or without MDL 72,527; assay type: cell-based, human
Experimental: as §1

human PAOh1 = molecular target: T3, human PAOh1 (Homo sapiens, UniProt Q9NWM0); experiment: PAO activity of in vitro TnT (wheat germ) produced PAOh1, fluorescent H2O2 assay; assay type: biochemical; details: 0.25 mM inhibitor, 250 μM spermine as substrate
T3 construct: made in house; host or cells: TnT-coupled wheat germ extract (Promega), template pPAOh1 (pcDNA3.1)
T3 sequence (Q9NWM0 whole entry): as the sequence (Q9NWM0 whole entry, the tested form may be a part) above
Experimental: In Vitro Transcription and Translation. In vitro transcription and translation reactions were performed with the TnT-coupled wheat germ extract system. Parallel reactions were prepared by adding an unlabeled amino acid mixture to one reaction and a [^35S]methionine containing amino acid mixture to the other, according to the supplied protocol. Vector pcDNA3.1 and pPAOh1 were linearized by SalI restriction and served as the templates. The labeled translation reactions products were separated by 10% SDS-PAGE, and radioactivity on the labeled PAO band was determined by Phosphor image analysis using Image Quant software (Molecular Dynamics, Sunnyvale, Calif.).
Determination of PAO Enzyme Activity. The cultured H157 cells with or without treatment of 10 μM N^1, N″-bis(ethyl)norspermine (BENSpm) were homogenized with a Dounce tissue homogenizer in ice-cold 0.083 M sodium borate buffer (pH 9.0). […] The enzyme activity was stopped by the addition of 2.0 ml of 0.1 M NaOH solution. The fluorescence intensity was measured with excitation at 323 nm and emission at 426 nm. […] Protein content of the cellular homogenate was determined using the Bio-Rad protein assay kit (Bio-Rad). […] For determination of PAO activity in the product of the unlabeled TnT reaction, 10 μl of TnT reaction were used in the place of the homogenate. […]

NCI A549 cells [3] = experiment: Intracellular polyamine and analogue content of NCI A549 cells (HPLC); assay type: cell-based, human; details: NCI A549, 10 μM, 24 h
Text: as §2

SSAT = SSAT activity of NCI A549 cellular extracts; assay type: cell-based, human; details: NCI A549, 10 μM, 24 h; untreated 5 ± 0.1
Text: as §2

[4] = named compound as substrate, Lineweaver-Burk

SMILES	ability to serve as substrate (oxidation by purified PAOh1/SMO) [1]	substrate of the inducible PAOh1/SMO activity (PAOh1/SMO)	Km of PAOh4 (PAOh4)	inhibition of PAOh1/SMO activity, increasing concentrations [1]	induction of PAOh1/SMO activity (PAOh1/SMO)	other results
NCCCNCCCCNCCCN [spermine]	efficiently oxidize	only spermine was a substrate	nanomolar range	–	–	–
CCNCCCCNCCCCNCCCCNCCCCNC/C=C/CNCCCCNCCCCNCCCCNCCCCNCC [SL-11144]	none of the analogues examined were found to be oxidized	–	–	potent inhibitors	did not induce	potency relative to MDL 72,527 [1]: 100 times
C=C=CCNCCCCNCC=C=C [MDL 72,527, N^1,N^4-bis(2,3-butadienyl)-1,4-butanediamine]	–	–	–	–	–	IC50 [1]: ~10 µM; inhibition at 250 µM ([1]; read-out: inhibition of oxidation of spermine): > 95%; basal oxidase activity in the presence of inhibitor (PAOh1/SMO; NCI A549 basal activity (4184 without inhibitor), 250 μM MDL 72,527): 4055 pmol/mg per hour; effect on the basal levels of oxidase activity (PAOh1/SMO; NCI A549 lysate, 250 μM MDL 72,527): did not significantly reduce; inhibition of the PAOh1/SMO activity induced by the analogues (PAOh1/SMO; NCI A549 lysate, 250 μM MDL 72,527 in the assay): significantly inhibited; part of the basal level of oxidase activity that is inhibited (PAOh1/SMO; basal (untreated) lung cancer cell lysate): less than 10%; effect of the inhibitor alone on growth (NCI A549 cells [2]; NCI A549, 250 μM MDL 72,527): did not adversely affect the growth; inhibition of the human PAOh1 protein product (human PAOh1): effective in inhibiting
CCNCCCNCCCNCCCNCC1CC1 [CPENSpm, N^1-ethyl-N^11-(cyclopropyl) methyl-4,8,diazaundecane]	none of the analogues examined were found to be oxidized	–	–	–	significant induction	Polyamine: Putrescine (NCI A549 cells [3]; untreated 2.1 ± 0.7): <0.05 nmol/mg protein; Polyamine: Spermine (NCI A549 cells [3]; untreated 9.9 ± 1.2): 2.4 ± 0.4 nmol/mg protein; Polyamine: Spermidine (NCI A549 cells [3]; untreated 26.9 ± 1.2): 5.5 ± 0.2 nmol/mg protein; PAOh1/SMO activity (PAOh1/SMO; NCI A549, 10 μM, 24 h, untreated 6,390 ± 2,070): 14,300 ± 3,700 pmol H2O2/mg/h; dose-dependence of PAOh1/SMO activity (PAOh1/SMO; NCI A549, increasing concentrations, 24 h): continued to increase at concentrations up to 50 μM; sensitivity of cell growth to analogue in the presence of the PAOh1/SMO inhibitor (NCI A549 cells [2]; NCI A549, 96 h, 10 μM analogue with 250 μM MDL 72,527): clear decrease in sensitivity; SSAT activity (SSAT): 1190 ± 287.9 pmol N^1-acetylspermidine/mg p
CCNCCCCNCCCCNCCCCNCCCCNC/C=C\CNCCCCNCCCCNCCCCNCCCCNCC [SL-11150]	none of the analogues examined were found to be oxidized	–	–	potent inhibitors	did not induce	potency relative to MDL 72,527 [1]: 100 times
CCNCCCNCCCNCCCNCC1CCCCCC1 [CHENSpm, N^1-ethyl-N^11-(cycloheptyl) methyl-4,8,diazaundecane]	none of the analogues examined were found to be oxidized	–	–	not found to profoundly inhibit	significant induction	inhibition of PAOh1/SMO activity ([1]; at 10 μM): < 20%
CCNCCCNCCCNCCCNC[C@@H](C)CC [IPENSpm, (S)-N1-(2-methyl-1-butyl)-N^11-ethyl-4,8,diazaundecane]	none of the analogues examined were found to be oxidized	–	–	–	significant induction	–
CC(=O)NCCCNCCCCNCCCN [N^1-acetylspermine]	less efficient	not significantly active	nanomolar range	–	–	Km [1, 4]: 51 µM; Vmax of purified PAOh1/SMO [1, 4]: 0.251 μmol/mg protein/min
NCCCCNCCCN [spermidine]	No PAOh1/SMO activity was observed	not significantly active	nanomolar range	–	–	–
